Holding throughout (assay): biochemical
Common to all, as to design: Invitrogen SelectScreen kinase panel, percent inhibition at 1 uM, ATP at Km
What all share (conditions): read-out: Invitrogen KSS %Inh at 1 µM

One assay addresses AXL (Homo sapiens, UniProt P30530). In outline:
(§1)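 Commercial kinase panel screens run with ATP at the Km for each kinase. Compounds tested at 1 µM final concentration; values are % inhibition of phosphorylation relative to control.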

The next assay addresses PLK1 (Homo sapiens, UniProt P53350). In outline:
as §1

Another assay deals with PRKG1 (Homo sapiens, UniProt Q13976). In outline:
as §1

The next assay has as its target MAPK12 (p38 gamma) (Homo sapiens, UniProt P53778). A digest of the protocol: as §1
The target of the next assay is RPS6KA3 (RSK2) (Homo sapiens, UniProt P51812). A digest of the protocol:
as §1

A further assay has as its target PTK6 (Brk) (Homo sapiens, UniProt Q13882). In outline:
as §1

Another assay deals with PRKCZ (PKC zeta) (Homo sapiens, UniProt Q05513). A digest of the protocol: as §1
The next assay addresses BLK (Homo sapiens, UniProt P51451). A digest of the protocol: as §1
The target in the next assay is PIK3CG (p110 gamma) (Homo sapiens, UniProt P48736). In outline: as §1
A further assay addresses INSRR (IRR) (Homo sapiens, UniProt P14616). In outline:
as §1

The next assay deals with MAP2K1 (MEK1) (Homo sapiens, UniProt Q02750). A digest of the protocol: as §1
For a further assay, the target named is MAPK10 (JNK3) (Homo sapiens, UniProt P53779). A digest of the protocol:
as §1

The next assay has as its target FER (Homo sapiens, UniProt P16591). In outline: as §1
The next assay has as its target PIM1 (Homo sapiens, UniProt P11309). A digest of the protocol:
as §1

The target in the next assay is MAPK1/ERK2 (Homo sapiens, UniProt P28482). A digest of the protocol: as §1
Chain of MAPK1/ERK2 (P28482 whole entry): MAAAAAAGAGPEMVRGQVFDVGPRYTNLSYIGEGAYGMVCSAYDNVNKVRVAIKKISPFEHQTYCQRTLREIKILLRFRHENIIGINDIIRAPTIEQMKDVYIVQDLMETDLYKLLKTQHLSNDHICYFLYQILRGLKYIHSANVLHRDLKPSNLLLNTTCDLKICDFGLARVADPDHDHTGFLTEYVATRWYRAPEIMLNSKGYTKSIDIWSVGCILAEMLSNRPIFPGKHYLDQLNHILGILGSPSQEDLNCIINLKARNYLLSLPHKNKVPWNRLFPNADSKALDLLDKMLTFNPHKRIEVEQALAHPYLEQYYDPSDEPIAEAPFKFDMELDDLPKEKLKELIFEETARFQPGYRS
Another assay deals with PKN1 (PRK1) (Homo sapiens, UniProt Q16512). In outline:
as §1

The target in a further assay is GSK3B (GSK3 beta) (Homo sapiens, UniProt P49841). A digest of the protocol: as §1
The next assay deals with AKT3 (PKB gamma) (Homo sapiens, UniProt Q9Y243). In outline: as §1
The target of a further assay is RAF1 (cRAF) Y340D Y341D (Homo sapiens, UniProt P04049, Y340D/Y341D). In outline:
as §1

A further assay addresses GRK4 (Homo sapiens, UniProt P32298). A digest of the protocol: as §1
A further assay addresses IGF1R (Homo sapiens, UniProt P08069). A digest of the protocol: as §1
A further assay concerns the target EPHB4 (Homo sapiens, UniProt P54760). In outline:
as §1

Chain of GRK4 (P32298 whole entry): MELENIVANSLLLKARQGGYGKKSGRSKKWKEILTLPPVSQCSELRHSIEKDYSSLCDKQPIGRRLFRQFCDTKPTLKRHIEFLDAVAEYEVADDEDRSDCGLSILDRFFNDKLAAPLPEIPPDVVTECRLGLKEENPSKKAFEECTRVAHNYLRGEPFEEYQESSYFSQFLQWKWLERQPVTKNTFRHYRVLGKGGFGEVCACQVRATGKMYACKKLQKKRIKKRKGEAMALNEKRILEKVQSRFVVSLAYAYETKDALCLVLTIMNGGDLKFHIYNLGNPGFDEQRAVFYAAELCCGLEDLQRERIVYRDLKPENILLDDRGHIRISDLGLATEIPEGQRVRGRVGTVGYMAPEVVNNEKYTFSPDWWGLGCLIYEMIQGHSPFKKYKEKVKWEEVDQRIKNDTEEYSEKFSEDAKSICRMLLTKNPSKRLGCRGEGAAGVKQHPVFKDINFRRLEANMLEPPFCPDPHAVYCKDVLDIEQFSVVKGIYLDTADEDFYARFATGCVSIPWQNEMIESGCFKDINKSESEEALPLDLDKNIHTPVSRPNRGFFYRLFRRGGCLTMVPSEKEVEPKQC
Chain of EPHB4 (P54760 whole entry): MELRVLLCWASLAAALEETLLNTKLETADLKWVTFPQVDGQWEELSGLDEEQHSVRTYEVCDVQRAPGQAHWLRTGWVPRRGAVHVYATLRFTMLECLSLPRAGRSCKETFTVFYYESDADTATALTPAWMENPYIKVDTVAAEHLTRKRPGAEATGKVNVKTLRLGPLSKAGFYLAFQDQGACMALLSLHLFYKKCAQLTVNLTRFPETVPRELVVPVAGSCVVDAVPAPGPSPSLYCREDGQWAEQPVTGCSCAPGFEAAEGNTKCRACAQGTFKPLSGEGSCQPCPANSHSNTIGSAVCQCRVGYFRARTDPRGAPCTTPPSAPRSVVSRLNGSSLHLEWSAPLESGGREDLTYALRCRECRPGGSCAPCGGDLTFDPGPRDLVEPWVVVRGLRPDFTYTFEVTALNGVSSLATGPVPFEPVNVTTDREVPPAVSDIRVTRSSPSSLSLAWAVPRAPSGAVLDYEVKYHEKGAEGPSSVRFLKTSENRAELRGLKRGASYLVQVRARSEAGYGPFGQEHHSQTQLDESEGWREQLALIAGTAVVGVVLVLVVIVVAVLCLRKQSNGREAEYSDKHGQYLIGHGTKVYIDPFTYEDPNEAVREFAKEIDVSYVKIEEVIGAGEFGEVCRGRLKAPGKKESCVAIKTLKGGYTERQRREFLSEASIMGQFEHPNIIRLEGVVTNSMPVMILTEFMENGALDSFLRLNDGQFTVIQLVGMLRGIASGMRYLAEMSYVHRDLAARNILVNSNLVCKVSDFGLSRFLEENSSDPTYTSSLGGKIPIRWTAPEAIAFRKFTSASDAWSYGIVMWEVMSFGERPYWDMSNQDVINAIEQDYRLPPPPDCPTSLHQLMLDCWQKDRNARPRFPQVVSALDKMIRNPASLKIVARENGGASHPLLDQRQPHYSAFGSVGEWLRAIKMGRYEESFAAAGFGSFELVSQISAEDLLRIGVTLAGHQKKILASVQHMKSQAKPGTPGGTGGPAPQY
Chain of RPS6KA3 (RSK2) (P51812 whole entry): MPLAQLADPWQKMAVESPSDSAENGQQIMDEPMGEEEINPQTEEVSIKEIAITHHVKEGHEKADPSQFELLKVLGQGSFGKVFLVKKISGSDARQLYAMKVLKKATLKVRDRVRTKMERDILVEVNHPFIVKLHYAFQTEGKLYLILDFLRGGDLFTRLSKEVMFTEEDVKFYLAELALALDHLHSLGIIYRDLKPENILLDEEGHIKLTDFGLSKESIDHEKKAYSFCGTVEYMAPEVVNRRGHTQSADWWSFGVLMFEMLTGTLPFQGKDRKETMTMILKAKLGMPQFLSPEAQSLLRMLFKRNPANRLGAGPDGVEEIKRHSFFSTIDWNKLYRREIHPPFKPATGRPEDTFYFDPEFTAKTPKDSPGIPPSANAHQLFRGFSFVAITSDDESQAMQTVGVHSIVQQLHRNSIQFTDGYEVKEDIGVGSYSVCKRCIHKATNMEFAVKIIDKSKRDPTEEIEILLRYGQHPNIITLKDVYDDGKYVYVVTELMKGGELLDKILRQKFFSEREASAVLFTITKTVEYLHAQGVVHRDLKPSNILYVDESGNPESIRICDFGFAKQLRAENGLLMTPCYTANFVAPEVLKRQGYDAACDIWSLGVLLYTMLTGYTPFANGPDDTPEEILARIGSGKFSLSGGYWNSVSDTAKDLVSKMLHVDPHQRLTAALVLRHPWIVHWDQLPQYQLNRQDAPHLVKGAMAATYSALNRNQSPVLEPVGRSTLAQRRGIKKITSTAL
Chain of PTK6 (Brk) (Q13882 whole entry): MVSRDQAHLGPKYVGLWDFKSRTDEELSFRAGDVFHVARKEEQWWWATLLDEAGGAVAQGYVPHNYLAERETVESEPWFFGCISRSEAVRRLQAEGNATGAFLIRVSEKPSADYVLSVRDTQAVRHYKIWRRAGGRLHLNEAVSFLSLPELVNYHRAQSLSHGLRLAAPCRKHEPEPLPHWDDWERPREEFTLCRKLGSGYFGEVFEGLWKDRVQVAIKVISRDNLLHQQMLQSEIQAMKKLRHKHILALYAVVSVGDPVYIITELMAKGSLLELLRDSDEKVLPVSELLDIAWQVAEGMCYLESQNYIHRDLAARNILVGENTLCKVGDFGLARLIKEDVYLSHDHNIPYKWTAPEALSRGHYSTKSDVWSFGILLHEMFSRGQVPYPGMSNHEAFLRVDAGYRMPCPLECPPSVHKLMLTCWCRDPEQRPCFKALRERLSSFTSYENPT
Chain of MAPK12 (p38 gamma) (P53778 whole entry): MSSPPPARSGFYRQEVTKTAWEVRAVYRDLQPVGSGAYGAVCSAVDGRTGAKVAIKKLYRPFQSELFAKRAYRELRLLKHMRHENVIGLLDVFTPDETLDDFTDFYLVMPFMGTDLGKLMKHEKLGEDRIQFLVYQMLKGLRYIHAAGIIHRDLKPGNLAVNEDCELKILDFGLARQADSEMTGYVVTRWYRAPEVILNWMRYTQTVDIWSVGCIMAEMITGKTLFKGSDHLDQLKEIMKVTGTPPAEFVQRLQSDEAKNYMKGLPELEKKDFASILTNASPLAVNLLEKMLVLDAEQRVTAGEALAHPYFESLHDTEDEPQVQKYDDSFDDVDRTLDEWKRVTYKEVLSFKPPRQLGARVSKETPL
Chain of PLK1 (P53350 whole entry): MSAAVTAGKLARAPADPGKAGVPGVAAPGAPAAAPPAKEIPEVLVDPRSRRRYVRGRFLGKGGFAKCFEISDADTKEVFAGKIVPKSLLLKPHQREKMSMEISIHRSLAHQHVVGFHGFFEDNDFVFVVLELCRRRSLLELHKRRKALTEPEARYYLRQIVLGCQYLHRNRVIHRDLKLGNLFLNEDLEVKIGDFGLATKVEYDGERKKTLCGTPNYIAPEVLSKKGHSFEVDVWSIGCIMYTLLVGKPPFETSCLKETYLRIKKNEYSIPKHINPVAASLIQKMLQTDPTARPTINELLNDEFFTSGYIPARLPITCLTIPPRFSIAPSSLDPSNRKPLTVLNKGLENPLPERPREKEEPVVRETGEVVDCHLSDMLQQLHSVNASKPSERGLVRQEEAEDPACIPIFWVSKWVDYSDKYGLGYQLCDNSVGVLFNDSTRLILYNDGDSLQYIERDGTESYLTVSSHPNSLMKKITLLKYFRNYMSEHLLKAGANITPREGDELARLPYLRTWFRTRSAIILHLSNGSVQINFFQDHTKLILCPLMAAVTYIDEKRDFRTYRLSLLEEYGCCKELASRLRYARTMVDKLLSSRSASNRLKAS
Chain of RAF1 (cRAF) Y340D Y341D (P04049 whole entry Y340D/Y341D): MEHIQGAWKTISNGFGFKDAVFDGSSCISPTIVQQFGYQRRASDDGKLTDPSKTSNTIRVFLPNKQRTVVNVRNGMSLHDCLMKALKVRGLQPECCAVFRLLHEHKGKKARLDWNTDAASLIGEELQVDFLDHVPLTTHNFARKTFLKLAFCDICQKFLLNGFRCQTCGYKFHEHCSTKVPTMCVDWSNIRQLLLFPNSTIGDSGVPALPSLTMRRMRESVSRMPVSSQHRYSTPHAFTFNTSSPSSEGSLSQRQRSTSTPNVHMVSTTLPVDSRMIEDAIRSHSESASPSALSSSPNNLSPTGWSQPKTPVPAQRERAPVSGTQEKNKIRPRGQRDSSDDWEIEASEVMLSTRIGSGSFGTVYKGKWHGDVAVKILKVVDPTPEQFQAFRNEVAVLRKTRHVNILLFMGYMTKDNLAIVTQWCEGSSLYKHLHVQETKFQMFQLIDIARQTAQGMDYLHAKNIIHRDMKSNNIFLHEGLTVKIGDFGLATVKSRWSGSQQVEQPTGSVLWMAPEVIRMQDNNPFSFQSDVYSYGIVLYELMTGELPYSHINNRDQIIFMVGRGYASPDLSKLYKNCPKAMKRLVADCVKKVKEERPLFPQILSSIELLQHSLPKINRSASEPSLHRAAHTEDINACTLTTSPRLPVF

Take `N#CCCNc1nccc(-c2cn(CC(F)F)nc2-c2cnc3[nH]ccc3c2)n1` [RAFi, PF-04880594]: the inhibition at 1 µM is -1% on AXL; 27% at PLK1; -3% at PRKG1; 2% at MAPK12 (p38 gamma); -9% on RPS6KA3 (RSK2); 5% at PTK6 (Brk). Also, the inhibition at 1 µM on PRKCZ (PKC zeta) is -7%; on BLK it was 7%; at PIK3CG (p110 gamma) it was 12%; at INSRR (IRR) it was 3%; on MAP2K1 (MEK1) it was 24%; at MAPK10 (JNK3) it was 81%. Besides, the inhibition at 1 µM at FER is -2%; at PIM1 it was 2%; on MAPK1/ERK2, 14%; at PKN1 (PRK1), -10%; at GSK3B (GSK3 beta), 23%; on AKT3 (PKB gamma) it was 7%. The inhibition at 1 µM on RAF1 (cRAF) Y340D Y341D was 95%; at GRK4 it was -18%; on IGF1R, 9%; on EPHB4 it was 2%.

For the origin of these results see publication PMC3382171 (PLoS ONE, 2012).
